Assay results taken from ChEMBL document CHEMBL4483862, “Open-source discovery of chemical leads for next-generation chemoprotective antimalarials” (2018).

Test system: Plasmodium berghei
Assay: Luciferase/luciferin-expressing antifolate-resistant parasites were used to infect a culture of HepG2 cells that were pre-incubated with compounds. Infected hepatocytes emit light due to the luciferase reaction. Assay results are presented as the percent inhibition of light emission compared to control. […]
Assay type: functional
Details: sporozoite; for IC90: read-out: LUCIFERASE INFECTION ASSAY - IC90
[1] = read-out: LUCIFERASE INFECTION ASSAY - IC50

Compound | IC50 [1] | IC90 | further results
CC(=O)c1c(C)cc(C)c(CN2C(=O)CN(c3ccccc3)C2=O)c1C | > 10 µM | > 10 µM | 
CCOC(=O)c1oc2ccc(Br)cc2c1CSc1nnc(-c2cccs2)n1Cc1ccccc1 |  | > 10 µM | IC50 (HEPG2TOX_HILL_SLOPE 1.32, HEPG2TOX_R_SQUARED 0.694, read-out: LUCIFERASE INFECTION ASSAY - IC50): > 10 µM
CC(C)NC(=O)NCc1ccc(C(=O)OCC(=O)C(C#N)=C2Nc3ccccc3N2)cc1 |  | 6.88 µM | IC50 (PBLUC_HILL_SLOPE 2.52, PBLUC_R_SQUARED 0.605, read-out: LUCIFERASE INFECTION ASSAY - IC50): 2.88 µM
Clc1cc(Cl)cc(NCc2ccc3c(c2)OCO3)c1 | > 11.1 µM | > 11.1 µM | 
CCOC(=O)COc1ccccc1/C=C(/C#N)S(=O)(=O)c1ccccc1 | > 8.89 µM | > 8.89 µM | 
CC(=O)c1cccc(-c2cnc3cnc(-c4cnn(C)c4)cn23)c1 |  | > 10.4 µM | IC50 (HEPG2TOX_HILL_SLOPE 7.11, HEPG2TOX_R_SQUARED 0.363, PBLUC_HILL_SLOPE 4.07, PBLUC_R_SQUARED 0.503, read-out: LUCIFERASE INFECTION ASSAY - IC50): 9.68 µM
CS(=O)(=O)c1ccc(-c2cnc3c(NC=O)cc(-c4ccccc4)cn23)cc1 |  | > 8.43 µM | IC50 (PBLUC_HILL_SLOPE 4.26, PBLUC_R_SQUARED 0.756, read-out: LUCIFERASE INFECTION ASSAY - IC50): 6.43 µM
COc1ccc(CCN(C)c2ccc(S(=O)(=O)N(C(C)C)C(C)C)cn2)cc1OC |  | > 10 µM | IC50 (PBLUC_HILL_SLOPE 2.91, PBLUC_R_SQUARED 0.109, read-out: LUCIFERASE INFECTION ASSAY - IC50): 5.86 µM
Cn1nnnc1Sc1ncnc2cc(-c3ccc(F)cc3)sc12 | > 10 µM | > 10 µM | 
CCOC(=O)NC(=O)COC(=O)CCc1ccc(OC)cc1 | > 10 µM | > 10 µM | 
O=C(COC(=O)c1c2c(nc3ccccc13)CCCC2)Nc1ccccc1 |  | > 10 µM | IC50 (HEPG2TOX_HILL_SLOPE 0.267, HEPG2TOX_R_SQUARED 0.55, read-out: LUCIFERASE INFECTION ASSAY - IC50): > 10 µM
C/C(N)=C(/C#N)C(=O)COC(=O)CCN1C(=O)C2CC=CCC2C1=O (stereo not drawn) | > 10 µM | > 10 µM | 
CC(C)c1ccc2cc(C(=O)Nc3ccc4c(c3)NC(=O)CO4)[nH]c2c1 |  | 2.97 µM | IC50 (HEPG2TOX_HILL_SLOPE 0.683, HEPG2TOX_R_SQUARED 0.922, PBLUC_HILL_SLOPE 2.26, PBLUC_R_SQUARED 0.558, read-out: LUCIFERASE INFECTION ASSAY - IC50): 1.13 µM
COc1ccccc1NC(=S)N/N=C(C)/C=C/C1C(C)=CCCC1(C)C (stereo not drawn) | > 10 µM | > 10 µM | 
COC(=O)c1sc(NC(=O)COC(=O)C2Cc3ccccc3CN2S(=O)(=O)c2cccs2)c(C(=O)OC)c1C (stereo not drawn) | > 10 µM | > 10 µM | 
COc1ccc2c(c1)CCCC21NC(=O)N(Cc2nc3ccccc3s2)C1=O (stereo not drawn) |  | 8.43 µM | IC50 (PBLUC_HILL_SLOPE 1.51, PBLUC_R_SQUARED 0.684, read-out: LUCIFERASE INFECTION ASSAY - IC50): 1.97 µM
CC(=O)Nc1ccc(NC(=O)/C(C#N)=C/c2c(Cl)cccc2Cl)cc1 |  | > 10 µM | IC50 (PBLUC_HILL_SLOPE 14.2, PBLUC_R_SQUARED 0.281, read-out: LUCIFERASE INFECTION ASSAY - IC50): 9.36 µM
O=C(CCN1CCN(c2ccc([N+](=O)[O-])cc2)CC1)N1CCN(c2ccccn2)CC1 |  | 4.57 µM | IC50 (HEPG2TOX_HILL_SLOPE 9.17, HEPG2TOX_R_SQUARED 0.128, PBLUC_HILL_SLOPE 14.9, PBLUC_R_SQUARED 0.446, read-out: LUCIFERASE INFECTION ASSAY - IC50): 3.94 µM
CC(C)=CC(=O)Nc1scc(-c2ccccc2)c1C(=O)OCC(=O)N(CCC#N)c1cc(C)cc(C)c1 | > 10 µM | > 10 µM | 
COc1ccc(CNc2nc3cnc(Nc4ccc(OC(F)(F)F)cc4)cc3n2C)cc1OC | > 10 µM | > 10 µM | 
Cc1ccc(/C=N/Nc2nn3c(=O)c4ccccc4nc3c3ccccc23)o1 |  | 8.5 µM | IC50 (HEPG2TOX_HILL_SLOPE 9.29, HEPG2TOX_R_SQUARED 0.957, PBLUC_HILL_SLOPE 5.5, PBLUC_R_SQUARED 0.698, read-out: LUCIFERASE INFECTION ASSAY - IC50): 5.7 µM
O=c1[nH]c2ccccc2c(O)c1F |  | 2.92 µM | IC50 (PBLUC_HILL_SLOPE 2.84, PBLUC_R_SQUARED 0.833, read-out: LUCIFERASE INFECTION ASSAY - IC50): 1.35 µM

Compound | IC50 [1] | IC90 | further results
Oc1c(Cl)cc(Cl)cc1/C=C/c1ccc2cccc(O)c2n1 |  | 7.78 µM | IC50 (HEPG2TOX_HILL_SLOPE 10.3, HEPG2TOX_R_SQUARED 0.191, PBLUC_HILL_SLOPE 3.13, PBLUC_R_SQUARED 0.48, read-out: LUCIFERASE INFECTION ASSAY - IC50): 3.86 µM
Cc1cccc(/C=C2\CC(C#N)(c3ccccc3)C/C(=C\c3cccc(C)c3)C2=O)c1 (stereo not drawn) |  | > 10 µM | IC50 (PBLUC_HILL_SLOPE 1.76, PBLUC_R_SQUARED 0.46, read-out: LUCIFERASE INFECTION ASSAY - IC50): 9.05 µM
CCc1nc2oc3ccccc3c(=O)c2c(=O)n1CCc1ccccc1 |  | > 9.53 µM | IC50 (HEPG2TOX_HILL_SLOPE 2.79, HEPG2TOX_R_SQUARED 0.325, PBLUC_HILL_SLOPE 2.85, PBLUC_R_SQUARED 0.319, read-out: LUCIFERASE INFECTION ASSAY - IC50): 4.63 µM
Cc1nc2ccccc2nc1SCC(=O)Nc1ccccc1N1CCOCC1 | > 10 µM | > 10 µM | 
Fc1ccc(Nc2nccc3nc(-c4ccccc4Cl)[nH]c23)cc1Cl |  | > 10 µM | IC50 (HEPG2TOX_HILL_SLOPE 6.23, HEPG2TOX_R_SQUARED 0.841, PBLUC_HILL_SLOPE 1.89, PBLUC_R_SQUARED 0.243, read-out: LUCIFERASE INFECTION ASSAY - IC50): 5.64 µM
CN(C)S(=O)(=O)c1ccc(N2CCCC2)c(C(=O)Nc2nc(-c3ccccn3)cs2)c1 |  | 9.7 µM | IC50 (HEPG2TOX_HILL_SLOPE 8.6, HEPG2TOX_R_SQUARED 0.463, PBLUC_HILL_SLOPE 5.89, PBLUC_R_SQUARED 0.378, read-out: LUCIFERASE INFECTION ASSAY - IC50): 6.68 µM
Fc1cccc(-c2nccc3n[nH]c(-c4cccc(OC(F)(F)F)c4)c23)c1 |  | > 10 µM | IC50 (PBLUC_HILL_SLOPE 1.45, PBLUC_R_SQUARED 0.246, read-out: LUCIFERASE INFECTION ASSAY - IC50): 5.34 µM
N#C/C(=N\Nc1ccc(F)cc1)S(=O)(=O)c1ccc(Cl)cc1 |  | 4.33 µM | IC50 (FFLUC_HILL_SLOPE 1.6, FFLUC_R_SQUARED 0.662, HEPG2TOX_HILL_SLOPE 1.9, HEPG2TOX_R_SQUARED 0.994, PBLUC_HILL_SLOPE 9.61, PBLUC_R_SQUARED 0.336, read-out: LUCIFERASE INFECTION ASSAY - IC50): 3.44 µM
CCOC(=O)c1c(C)[nH]c(/C=C2/C(=O)N(c3ccccc3)N=C2C)c1Cc1cccc(Cl)c1 | > 10 µM | > 10 µM | 
Cc1c(S(=O)(=O)c2ccc(Cl)cc2)csc1C(=O)NCc1ccco1 |  | > 8.34 µM | IC50 (PBLUC_HILL_SLOPE 1.58, PBLUC_R_SQUARED 0.729, read-out: LUCIFERASE INFECTION ASSAY - IC50): 2.88 µM
C=C1c2ccccc2N=C(SC(C)C(=O)Nc2ccccc2)N1C (stereo not drawn) |  | 6.88 µM | IC50 (HEPG2TOX_HILL_SLOPE 0.246, HEPG2TOX_R_SQUARED 0.527, PBLUC_HILL_SLOPE 4.19, PBLUC_R_SQUARED 0.571, read-out: LUCIFERASE INFECTION ASSAY - IC50): 4.07 µM
O=C(Nc1ccc(OC(F)(F)F)cc1)Nc1ccc(Sc2ccc(Cl)cc2)nc1 |  | > 7.5 µM | IC50 (HEPG2TOX_HILL_SLOPE 6.6, HEPG2TOX_R_SQUARED 0.793, PBLUC_HILL_SLOPE 3.54, PBLUC_R_SQUARED 0.066, read-out: LUCIFERASE INFECTION ASSAY - IC50): 6.05 µM
Cc1cc(C(C)(C)C)ccc1OC(=O)c1sc2nc3n(c(=O)c2c1C)CCCCC3 | > 10 µM | > 10 µM | 
COC(=O)c1cnc(Sc2n[nH]c(=O)n2-c2ccc(Cl)cc2)c([N+](=O)[O-])c1 | > 8.09 µM | > 8.09 µM | 
CC(C)C(NC(=O)c1ccc(F)cc1)C(=O)NCC1Cc2ccccc21 (stereo not drawn) |  | > 10 µM | IC50 (PBLUC_HILL_SLOPE 3.06, PBLUC_R_SQUARED 0.302, read-out: LUCIFERASE INFECTION ASSAY - IC50): 6.96 µM
Cc1nn(-c2ccc(Cl)cc2)c2sc(C(=O)NC(C)(C)CC(C)(C)C)cc12 | > 10 µM | > 10 µM | 
CCCC1NC(=O)N(CC(O)COc2cccc(C(=O)OCC)c2)C1=O (stereo not drawn) | > 10 µM | > 10 µM | 
CC(C)(C)CC(=O)Nc1ccc(-c2nc3ccccc3[nH]2)cc1 |  | 6 µM | IC50 (HEPG2TOX_HILL_SLOPE 7.93, HEPG2TOX_R_SQUARED 0.604, PBLUC_HILL_SLOPE 0.372, PBLUC_R_SQUARED 0.913, read-out: LUCIFERASE INFECTION ASSAY - IC50): 0.0164 µM
O=C(Nc1nc(-c2c[nH]c3ccccc23)cs1)c1cc(=O)[nH]c2ccccc12 |  | > 10 µM | IC50 (PBLUC_HILL_SLOPE 7.71, PBLUC_R_SQUARED 0.559, read-out: LUCIFERASE INFECTION ASSAY - IC50): 9.23 µM
Cc1cc(C)nc(SCC(=O)N2CCN(C(=O)c3ccco3)CC2)n1 |  | 3.74 µM | IC50 (PBLUC_HILL_SLOPE 11.5, PBLUC_R_SQUARED 0.424, read-out: LUCIFERASE INFECTION ASSAY - IC50): 3.09 µM
Cc1nn(-c2ccccc2)c(Cl)c1/C=N/Nc1nc2ccccc2[nH]1 |  | > 10 µM | IC50 (PBLUC_HILL_SLOPE 3.35, PBLUC_R_SQUARED 0.119, read-out: LUCIFERASE INFECTION ASSAY - IC50): 7.2 µM
CCCCCCCCCCCc1n[nH]c(=S)n1-c1ccccc1C(F)(F)F |  | > 8.26 µM | IC50 (FFLUC_HILL_SLOPE 1.62, FFLUC_R_SQUARED 0.783, read-out: LUCIFERASE INFECTION ASSAY - IC50): > 8.26 µM
